Data reported in PubChem BioAssay (NCI).
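In this assay, cells in 96-well plates receive the compound at five concentrations for 48 hours. Endpoints are linearly interpolated between the surrounding concentrations. GI50 is the concentration that inhibits growth by half. The concentration for full growth arrest is given as TGI.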

Assays:
Assay in all cases: DTP human tumour cell line panel, 48 h
NCI-H460 lung = tested on: NCI-H460 lung
SR leukemia = tested on: SR leukemia
786-0 renal = tested on: 786-0 renal
HS 578T breast = tested on: HS 578T breast
CAKI-1 renal = tested on: CAKI-1 renal
SNB-75 CNS = tested on: SNB-75 CNS
OVCAR-4 ovarian = tested on: OVCAR-4 ovarian
MDA-MB-468 breast = tested on: MDA-MB-468 breast
CCRF-CEM leukemia = tested on: CCRF-CEM leukemia
MALME-3M melanoma = tested on: MALME-3M melanoma
PC-3 prostate = tested on: PC-3 prostate
SF-295 CNS = tested on: SF-295 CNS
UACC-62 melanoma = tested on: UACC-62 melanoma
EKVX NSCLC = tested on: EKVX NSCLC
HCC-2998 colon = tested on: HCC-2998 colon
HOP-62 NSCLC = tested on: HOP-62 NSCLC
TK-10 renal = tested on: TK-10 renal
A498 renal = tested on: A498 renal
HOP-92 NSCLC = tested on: HOP-92 NSCLC
RXF 393 renal = tested on: RXF 393 renal
SF-268 CNS = tested on: SF-268 CNS
HL-60(TB) leukemia = tested on: HL-60(TB) leukemia
SN12C renal = tested on: SN12C renal
SK-MEL-2 melanoma = tested on: SK-MEL-2 melanoma
HCT-15 colon = tested on: HCT-15 colon
ACHN renal = tested on: ACHN renal
COLO 205 colon = tested on: COLO 205 colon
SK-MEL-28 melanoma = tested on: SK-MEL-28 melanoma
OVCAR-8 ovarian = tested on: OVCAR-8 ovarian
OVCAR-3 ovarian = tested on: OVCAR-3 ovarian
SW-620 colon = tested on: SW-620 colon
MCF7 breast = tested on: MCF7 breast
SK-OV-3 ovarian = tested on: SK-OV-3 ovarian
KM12 colon = tested on: KM12 colon
MDA-MB-435 = tested on: MDA-MB-435
UO-31 renal = tested on: UO-31 renal
MDA-MB-231 breast = tested on: MDA-MB-231 breast
IGROV1 ovarian = tested on: IGROV1 ovarian
U251 CNS = tested on: U251 CNS
HT29 colon = tested on: HT29 colon
UACC-257 melanoma = tested on: UACC-257 melanoma
DU-145 prostate = tested on: DU-145 prostate
BT-549 breast = tested on: BT-549 breast
HCT-116 colon = tested on: HCT-116 colon
K-562 leukemia = tested on: K-562 leukemia
MOLT-4 leukemia = tested on: MOLT-4 leukemia
SF-539 CNS = tested on: SF-539 CNS
A549 NSCLC = tested on: A549 NSCLC
T-47D breast = tested on: T-47D breast
NCI-H522 lung = tested on: NCI-H522 lung
SNB-19 CNS = tested on: SNB-19 CNS
M14 melanoma = tested on: M14 melanoma
NCI-H23 lung = tested on: NCI-H23 lung
SK-MEL-5 melanoma = tested on: SK-MEL-5 melanoma
OVCAR-5 ovarian = tested on: OVCAR-5 ovarian
NCI/ADR-RES ovarian = tested on: NCI/ADR-RES ovarian
LOX IMVI melanoma = tested on: LOX IMVI melanoma
RPMI-8226 leukemia = tested on: RPMI-8226 leukemia
NCI-H226 lung = tested on: NCI-H226 lung

## COc1cc(C2CC(c3ccc(C(F)(F)F)cc3)=Nc3c(N)nc(N)nc3N2)ccc1Oc1nc(Nc2ccc(F)cc2)nc(N(C)C)n1 (stereo unspecified)
NCI-H460 lung
  GI50: 2.61 µM
  TGI: 7.19 µM
SR leukemia
  GI50: 1.89 µM
  TGI: 5.9 µM
786-0 renal
  GI50: 4 µM
  TGI: 16.6 µM
HS 578T breast
  GI50: 4.77 µM
  TGI: 96.2 µM
CAKI-1 renal
  GI50: 1.65 µM
  TGI: > 100 µM
SNB-75 CNS
  GI50: 2.17 µM
  TGI: > 100 µM
OVCAR-4 ovarian
  GI50: 3.92 µM
  TGI: 33.1 µM
MDA-MB-468 breast
  GI50: 2.4 µM
  TGI: 7.79 µM
CCRF-CEM leukemia
  GI50: 3.32 µM
  TGI: > 100 µM
MALME-3M melanoma
  GI50: 2.84 µM
  TGI: 14.2 µM
PC-3 prostate
  GI50: 3.2 µM
  TGI: > 100 µM
SF-295 CNS
  GI50: 7.12 µM
  TGI: 62.1 µM
UACC-62 melanoma
  GI50: 13.1 µM
  TGI: 31.2 µM
EKVX NSCLC
  GI50: 4.23 µM
  TGI: > 100 µM
HCC-2998 colon
  GI50: 2.26 µM
  TGI: 5.69 µM
HOP-62 NSCLC
  GI50: 17.8 µM
  TGI: 74.6 µM
TK-10 renal
  GI50: 18 µM
  TGI: 71 µM
A498 renal
  GI50: 17 µM
  TGI: 89.9 µM
HOP-92 NSCLC
  GI50: 2.1 µM
  TGI: 9.46 µM
RXF 393 renal
  GI50: 1.22 µM
  TGI: 5.54 µM
SF-268 CNS
  GI50: 6.14 µM
  TGI: > 100 µM
HL-60(TB) leukemia
  GI50: 2.35 µM
  TGI: 47.3 µM
SN12C renal
  GI50: 6.09 µM
  TGI: 46.6 µM
SK-MEL-2 melanoma
  GI50: 2.94 µM
  TGI: 11.7 µM
HCT-15 colon
  GI50: 3.4 µM
  TGI: 14.6 µM
ACHN renal
  GI50: 6.05 µM
  TGI: > 100 µM
COLO 205 colon
  GI50: 3.09 µM
  TGI: 14.7 µM
SK-MEL-28 melanoma
  GI50: 28.1 µM
  TGI: > 100 µM
OVCAR-8 ovarian
  GI50: 5.48 µM
  TGI: > 100 µM
OVCAR-3 ovarian
  GI50: 5.46 µM
  TGI: 21.9 µM
SW-620 colon
  GI50: 5.59 µM
  TGI: 75.2 µM
MCF7 breast
  GI50: 2.66 µM
  TGI: 10.7 µM
SK-OV-3 ovarian
  GI50: 63.5 µM
  TGI: > 100 µM
KM12 colon
  GI50: 3.05 µM
  TGI: 11.7 µM
MDA-MB-435
  GI50: 4.59 µM
  TGI: 23.5 µM
UO-31 renal
  GI50: 3.66 µM
  TGI: > 100 µM
MDA-MB-231 breast
  GI50: 2.29 µM
  TGI: 8.39 µM
IGROV1 ovarian
  GI50: 5 µM
  TGI: > 100 µM
U251 CNS
  GI50: 4.63 µM
  TGI: 21.1 µM
HT29 colon
  GI50: 2.23 µM
  TGI: 5.86 µM
UACC-257 melanoma
  GI50: 14.1 µM
  TGI: 76.5 µM
DU-145 prostate
  GI50: 4.9 µM
  TGI: > 100 µM
BT-549 breast
  GI50: 4.41 µM
  TGI: 21 µM
HCT-116 colon
  GI50: 1.76 µM
  TGI: 3.65 µM
K-562 leukemia
  GI50: 1.85 µM
  TGI: > 100 µM
MOLT-4 leukemia
  GI50: 1.71 µM
  TGI: > 100 µM
SF-539 CNS
  GI50: 6.1 µM
  TGI: 22.1 µM
A549 NSCLC
  GI50: 4.78 µM
  TGI: > 100 µM
T-47D breast
  GI50: 19 µM
  TGI: > 100 µM
NCI-H522 lung
  GI50: 4.75 µM
  TGI: 23.3 µM
SNB-19 CNS
  GI50: 9.14 µM
  TGI: > 100 µM
M14 melanoma
  GI50: 4.41 µM
  TGI: 50.7 µM
NCI-H23 lung
  GI50: 16.9 µM
  TGI: 74.9 µM
SK-MEL-5 melanoma
  GI50: 3.32 µM
  TGI: 12.8 µM
OVCAR-5 ovarian
  GI50: 35.2 µM
  TGI: > 100 µM

## COc1ccc(NC(=O)Cn2c(/C=C/c3cccc(OC)c3)nc3ccccc3c2=O)cc1
NCI-H460 lung
  GI50: 2.51 µM
  TGI: > 100 µM
SR leukemia
  GI50: 1.75 µM
  TGI: > 100 µM
786-0 renal
  GI50: 1.54 µM
  TGI: 3.38 µM
HS 578T breast
  GI50: 2.46 µM
  TGI: > 100 µM
CAKI-1 renal
  GI50: 2.52 µM
  TGI: > 31.7 µM
SNB-75 CNS
  GI50: 1.63 µM
  TGI: 4.49 µM
MDA-MB-468 breast
  GI50: 3.4 µM
  TGI: > 91.6 µM
NCI/ADR-RES ovarian
  GI50: 4.14 µM
  TGI: 86.9 µM
CCRF-CEM leukemia
  GI50: > 100 µM
  TGI: > 100 µM
MALME-3M melanoma
  GI50: 3.79 µM
  TGI: > 85.8 µM
PC-3 prostate
  GI50: > 54 µM
  TGI: > 100 µM
SF-295 CNS
  GI50: 2.56 µM
  TGI: > 41.1 µM
UACC-62 melanoma
  GI50: > 42.1 µM
  TGI: > 89.6 µM
EKVX NSCLC
  GI50: > 63.1 µM
  TGI: > 100 µM
HCC-2998 colon
  GI50: > 100 µM
  TGI: > 100 µM
HOP-62 NSCLC
  GI50: 3.01 µM
  TGI: 28.3 µM
TK-10 renal
  GI50: 2.03 µM
  TGI: 4.5 µM
A498 renal
  GI50: 1.96 µM
  TGI: 4.68 µM
HOP-92 NSCLC
  GI50: 2.95 µM
  TGI: > 44.7 µM
RXF 393 renal
  GI50: 1.93 µM
  TGI: 5.63 µM
SF-268 CNS
  GI50: 19.4 µM
  TGI: > 100 µM
HL-60(TB) leukemia
  GI50: > 100 µM
  TGI: > 100 µM
SN12C renal
  GI50: 1.85 µM
  TGI: > 39.1 µM
SK-MEL-2 melanoma
  GI50: 27.2 µM
  TGI: 79.6 µM
HCT-15 colon
  GI50: > 100 µM
  TGI: > 100 µM
LOX IMVI melanoma
  GI50: 2.03 µM
  TGI: > 100 µM
ACHN renal
  GI50: 1.24 µM
  TGI: 3.17 µM
COLO 205 colon
  GI50: > 100 µM
  TGI: > 100 µM
SK-MEL-28 melanoma
  GI50: > 75 µM
  TGI: > 100 µM
OVCAR-8 ovarian
  GI50: 4.55 µM
  TGI: > 100 µM
RPMI-8226 leukemia
  GI50: > 100 µM
  TGI: > 100 µM
OVCAR-3 ovarian
  GI50: 4.03 µM
  TGI: > 45.9 µM
SW-620 colon
  GI50: > 100 µM
  TGI: > 100 µM
MCF7 breast
  GI50: 3.56 µM
  TGI: > 100 µM
SK-OV-3 ovarian
  GI50: 5.67 µM
  TGI: > 46.7 µM
KM12 colon
  GI50: > 100 µM
  TGI: > 100 µM
MDA-MB-435
  GI50: > 100 µM
  TGI: > 100 µM
UO-31 renal
  GI50: 1.73 µM
  TGI: 3.77 µM
MDA-MB-231 breast
  GI50: 1.4 µM
  TGI: 4.42 µM
IGROV1 ovarian
  GI50: > 31 µM
  TGI: > 87.8 µM
U251 CNS
  GI50: 0.973 µM
  TGI: 4.2 µM
HT29 colon
  GI50: > 100 µM
  TGI: > 100 µM
UACC-257 melanoma
  GI50: > 100 µM
  TGI: > 100 µM
DU-145 prostate
  GI50: > 81.2 µM
  TGI: > 100 µM
BT-549 breast
  GI50: 9.84 µM
  TGI: > 59.9 µM
HCT-116 colon
  GI50: 1.21 µM
  TGI: > 59 µM
K-562 leukemia
  GI50: > 100 µM
  TGI: > 100 µM
MOLT-4 leukemia
  GI50: > 100 µM
  TGI: > 100 µM
SF-539 CNS
  GI50: 1.65 µM
  TGI: 4.15 µM
A549 NSCLC
  GI50: 2.3 µM
  TGI: > 100 µM
NCI-H226 lung
  GI50: 1.98 µM
  TGI: 6.51 µM
T-47D breast
  GI50: 2.41 µM
  TGI: 14.6 µM
NCI-H522 lung
  GI50: 5.8 µM
  TGI: > 47.5 µM
SNB-19 CNS
  GI50: 8.37 µM
  TGI: > 59.3 µM
M14 melanoma
  GI50: > 29.3 µM
  TGI: > 100 µM
NCI-H23 lung
  GI50: 3.69 µM
  TGI: > 44.3 µM
SK-MEL-5 melanoma
  GI50: > 100 µM
  TGI: > 100 µM
OVCAR-5 ovarian
  GI50: > 24.9 µM
  TGI: > 100 µM
